The text below walks through data of patent US20240109865A1, “INDAZOLE COMPOUNDS AS KINASE INHIBITORS” (TYRA BIOSCIENCES, INC., priority 2020, published 2024).

The target of one assay is FGFR1-BCR Ba/F3 cells (Homo sapiens, UniProt P11362). Put plainly: Ba/F3 cell viability assay (CellTiter-Glo 2.0), FGFR1-BCR Ba/F3. Format: cell-based. Particulars: read-out: Ba/F3 Cells FGFR1 (IC50 nM), 48 hours, Cell Titer Glo 2.0. From the text:
(§1) Experimental Purpose: Recombinant kinase fusions are transduced into parental Ba/F3, which becomes dependent upon this constitutive kinase activity for IL3-independent survival. Inhibition of kinase activity leads to cell death, which is monitored using CellTiter-Glo® 2.0 (Promega) which measures intracellular ATP concentration that in turn serves as a marker for viability. FGFR1-BCR Ba/F3 and FGFR3-BAIAP2L1 Ba/F3 were obtained from Advanced Cellular Dynamics (Seattle, WA)
(§2) Cell Viability Assay Procedure: Cell Titer-Glo® 2.0 Luminescent cell viability assay reagent was purchased from Promega (Madison, WI). FGFR1-BCR Ba/F3 and FGFR3-BAIAP2L1 Ba/F3 cells were cultured in RPMI1640 media supplemented with 10% fetal bovine serum. Cultures were maintained at 37° C. in a humidified atmosphere of 5% C02 and 95% air.
(§3) Cells were plated in 96-well clear bottom/white plates (Corning #3903) at 10,000 cells/well in 100 μl of media, incubated overnight. The next day, test compound DMSO stock solutions were made at 10 mM and 2 μM final concentration. Compounds were then added to cells in a 9-dose, 10-fold dilution series starting at 30 μM with an HP 300e Digital Dispenser (each dose was applied in triplicate). DMSO was backfilled to each well up to 301 nL total volume of test compound+DMSO, and a total of 301 nL DMSO was added to a control/no test compound well in triplicate. The cells in cell culture plates were incubated with the compounds at 37° C. and 5% C02 for 48 hours. Then 50 μl of Cell Titer Glo 2.0 reagent was added to each well of the cell culture plates. The contents were covered from light and mixed on an orbital shaker at room temperature for 10 min. Luminescence was recorded by a Synergy H1 Microplate Reader (Biotek, Winooski, VT). Cells were assessed as a percentage of DMSO only treated control cells. Curves were plotted and IC50 values were calculated using the GraphPad Prism 8 program based on a sigmoidal dose-response equation (4 parameter).

The target in assay [1] is FGFR3-BAIAP2L1 Ba/F3 cells (Homo sapiens, UniProt P22607). Put plainly: Ba/F3 cell viability assay (CellTiter-Glo 2.0), FGFR3-BAIAP2L1 Ba/F3. Format: cell-based. Particulars: for Ba/F3 FGFR1/FGFR3 Selectivity: FGFR3 > FGFR1 selectivity ratio in Ba/F3 FGFR fusion cell based assays; for IC50: read-out: Ba/F3 Cells FGFR3 (IC50 nM), FGFR3-BAIAP2L1 Ba/F3 cells, 48 hours, Cell Titer Glo 2.0.
Sequence of FGFR3-BAIAP2L1 Ba/F3 cells (P22607 23-806 limits assumed, change not shown): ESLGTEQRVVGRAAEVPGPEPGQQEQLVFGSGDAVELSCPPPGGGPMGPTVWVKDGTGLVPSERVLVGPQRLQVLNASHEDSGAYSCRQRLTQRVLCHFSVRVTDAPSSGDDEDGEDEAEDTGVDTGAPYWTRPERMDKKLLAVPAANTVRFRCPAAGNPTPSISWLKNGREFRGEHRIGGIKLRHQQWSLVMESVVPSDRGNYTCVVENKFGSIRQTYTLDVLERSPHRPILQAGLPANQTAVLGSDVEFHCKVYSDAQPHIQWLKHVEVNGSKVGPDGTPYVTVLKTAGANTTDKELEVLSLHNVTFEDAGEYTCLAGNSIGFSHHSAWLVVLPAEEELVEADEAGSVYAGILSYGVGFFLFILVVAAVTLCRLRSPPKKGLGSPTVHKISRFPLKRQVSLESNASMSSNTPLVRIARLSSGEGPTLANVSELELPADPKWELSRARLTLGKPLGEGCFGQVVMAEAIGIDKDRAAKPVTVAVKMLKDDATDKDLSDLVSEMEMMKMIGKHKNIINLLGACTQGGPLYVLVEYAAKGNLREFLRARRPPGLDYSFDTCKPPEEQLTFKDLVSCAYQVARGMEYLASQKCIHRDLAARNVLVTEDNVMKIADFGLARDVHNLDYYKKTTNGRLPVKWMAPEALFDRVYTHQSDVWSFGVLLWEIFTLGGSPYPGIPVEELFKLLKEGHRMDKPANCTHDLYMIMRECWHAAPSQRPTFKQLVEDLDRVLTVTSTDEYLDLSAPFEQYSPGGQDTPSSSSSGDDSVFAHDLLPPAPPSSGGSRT
From the text: as §1, §2, §3
A general note: ATP-based viability assays read luminescence as a measure of living cells.

The next assay concerns the target FGFR2 (Homo sapiens (Human), UniProt P21802). Kind of assay: Kinase assay, binding constants (Kd), kinase-tagged T7 phage, qPCR. Summed up:
(§4)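 Competition binding: kinase-tagged T7 phage lysates mixed with immobilized biotinylated ligand on streptavidin beads plus compound (11-point 3-fold dilution series, 0.9% DMSO final). Bound kinase eluted with free ligand and quantified by qPCR. Kd from Hill equation fit, slope fixed at −1.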

In the next assay the target is FGFR4 (Homo sapiens (Human), UniProt P22455). Described as above. Summed up:
as §4

The target in the next assay is FGFR3 (V555M) (Homo sapiens (Human), UniProt P22607, V555M). Described as above. To be noted: V555M mutant. Summed up: as §4
Sequence of FGFR3 (V555M) (P22607 23-806 V555M): as the sequence (P22607 23-806 limits assumed, change not shown) above, with V533M counted along it
Another assay concerns the target FGFR1 (Homo sapiens (Human), UniProt P11362). Described as above. Summed up:
as §4

In another assay the target is FGFR3 (Homo sapiens (Human), UniProt P22607). Described as above. Summed up:
as §4

Each structure is given as a SMILES string. Some results are limits rather than exact numbers.

Sequence of FGFR4 (P22455 22-802): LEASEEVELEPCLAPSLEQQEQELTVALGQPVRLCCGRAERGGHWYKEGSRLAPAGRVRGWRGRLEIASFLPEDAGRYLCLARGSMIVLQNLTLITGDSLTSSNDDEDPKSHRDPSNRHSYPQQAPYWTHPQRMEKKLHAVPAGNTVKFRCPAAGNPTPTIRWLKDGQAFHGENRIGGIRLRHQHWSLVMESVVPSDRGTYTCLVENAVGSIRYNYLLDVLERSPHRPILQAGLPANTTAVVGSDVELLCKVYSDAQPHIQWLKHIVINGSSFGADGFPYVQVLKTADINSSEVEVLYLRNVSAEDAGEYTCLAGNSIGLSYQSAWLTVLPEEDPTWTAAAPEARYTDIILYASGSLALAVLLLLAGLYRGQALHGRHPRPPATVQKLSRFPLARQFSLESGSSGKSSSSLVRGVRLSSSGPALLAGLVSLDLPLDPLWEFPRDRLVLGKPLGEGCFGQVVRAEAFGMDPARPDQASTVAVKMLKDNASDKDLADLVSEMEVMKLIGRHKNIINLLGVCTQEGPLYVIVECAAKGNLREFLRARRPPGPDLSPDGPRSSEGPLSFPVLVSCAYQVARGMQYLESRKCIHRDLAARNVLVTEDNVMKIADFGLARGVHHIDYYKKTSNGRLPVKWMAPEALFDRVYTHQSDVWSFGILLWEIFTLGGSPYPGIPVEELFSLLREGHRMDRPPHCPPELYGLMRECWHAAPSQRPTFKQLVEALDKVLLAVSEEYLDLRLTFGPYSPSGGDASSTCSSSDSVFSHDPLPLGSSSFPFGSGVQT
Sequence of FGFR1 (P11362 22-822): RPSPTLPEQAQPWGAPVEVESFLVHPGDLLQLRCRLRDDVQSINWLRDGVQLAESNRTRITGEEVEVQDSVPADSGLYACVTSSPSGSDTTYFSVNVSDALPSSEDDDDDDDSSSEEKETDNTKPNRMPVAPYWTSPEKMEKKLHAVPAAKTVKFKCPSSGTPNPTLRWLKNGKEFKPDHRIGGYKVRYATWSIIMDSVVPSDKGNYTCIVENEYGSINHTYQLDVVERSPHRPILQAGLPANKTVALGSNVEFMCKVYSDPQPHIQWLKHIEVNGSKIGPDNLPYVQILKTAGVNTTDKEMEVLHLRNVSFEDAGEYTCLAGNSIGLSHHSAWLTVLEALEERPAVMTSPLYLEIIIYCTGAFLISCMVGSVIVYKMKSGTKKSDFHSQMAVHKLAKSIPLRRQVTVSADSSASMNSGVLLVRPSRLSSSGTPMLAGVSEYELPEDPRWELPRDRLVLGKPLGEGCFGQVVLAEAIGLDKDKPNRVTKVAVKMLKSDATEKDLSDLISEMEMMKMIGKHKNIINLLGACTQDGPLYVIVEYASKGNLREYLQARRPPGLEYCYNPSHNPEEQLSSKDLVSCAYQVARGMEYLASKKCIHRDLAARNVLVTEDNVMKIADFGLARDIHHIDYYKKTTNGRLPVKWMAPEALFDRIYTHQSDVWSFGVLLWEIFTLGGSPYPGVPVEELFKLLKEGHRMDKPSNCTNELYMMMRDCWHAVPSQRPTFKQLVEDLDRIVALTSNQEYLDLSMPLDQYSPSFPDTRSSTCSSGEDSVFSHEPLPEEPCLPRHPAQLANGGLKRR
Sequence of FGFR1-BCR Ba/F3 cells (P11362 22-822 limits assumed, change not shown): as the sequence (P11362 22-822) above
Sequence of FGFR2 (P21802 22-821): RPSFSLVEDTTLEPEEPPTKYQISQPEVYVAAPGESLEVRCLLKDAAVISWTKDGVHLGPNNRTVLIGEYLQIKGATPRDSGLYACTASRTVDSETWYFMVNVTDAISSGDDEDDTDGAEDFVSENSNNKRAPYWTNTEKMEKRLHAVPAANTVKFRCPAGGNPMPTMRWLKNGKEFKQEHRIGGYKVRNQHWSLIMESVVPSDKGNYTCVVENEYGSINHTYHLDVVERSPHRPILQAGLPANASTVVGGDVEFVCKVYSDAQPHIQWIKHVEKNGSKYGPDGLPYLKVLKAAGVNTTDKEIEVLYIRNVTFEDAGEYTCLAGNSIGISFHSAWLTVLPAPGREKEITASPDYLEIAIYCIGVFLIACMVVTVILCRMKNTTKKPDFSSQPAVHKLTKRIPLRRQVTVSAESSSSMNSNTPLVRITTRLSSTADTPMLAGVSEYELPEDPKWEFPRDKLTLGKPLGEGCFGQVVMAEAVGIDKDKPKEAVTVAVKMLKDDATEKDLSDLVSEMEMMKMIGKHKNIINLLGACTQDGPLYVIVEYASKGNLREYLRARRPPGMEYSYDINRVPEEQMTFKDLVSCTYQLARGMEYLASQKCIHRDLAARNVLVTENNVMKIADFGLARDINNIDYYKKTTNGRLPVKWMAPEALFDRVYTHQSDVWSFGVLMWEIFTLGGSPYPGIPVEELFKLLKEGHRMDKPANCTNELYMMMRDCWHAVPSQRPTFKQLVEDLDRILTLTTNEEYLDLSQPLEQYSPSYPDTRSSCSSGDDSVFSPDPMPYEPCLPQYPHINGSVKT
Sequence of FGFR3 (P22607 23-806): as the sequence (P22607 23-806 limits assumed, change not shown) above

For `COC(=O)N1CCN(c2ccc(-c3n[nH]c4ccc(O[C@H](C)c5c(Cl)cncc5Cl)cc34)cn2)CC1` [Example 7, Methyl 4-[5-[5-[(1R)-1-(3,5-dichloro-4-pyridyl)ethoxy]-1H-indazol-3-yl]-2-pyridyl]piperazine-1-carboxylate], the IC50 was greater than 300 nM at FGFR1-BCR Ba/F3 cells and 20 to 100 nM in assay [1]. The “Ba/F3 FGFR1/FGFR3 Selectivity” value in assay [1] was found to be 15. The Kd on FGFR2 lay in the range of 20 to 100 nM; at FGFR4, 1 to 20 nM; on FGFR3 (V555M) it was 1 to 20 nM; at FGFR1, 1 to 20 nM; at FGFR3, 1 to 20 nM.

As to `C[C@@H](Oc1ccc2[nH]nc(-c3ccc(Cl)nc3)c2c1)c1c(Cl)cncc1Cl` [Example 18, 3-(6-Chloro-3-pyridyl)-5-[(1R)-1-(3,5-dichloro-4-pyridyl)ethoxy]-1H-indazole], the IC50 is greater than 300 nM at FGFR1-BCR Ba/F3 cells and 20 to 100 nM in assay [1]. In addition, the “Ba/F3 FGFR1/FGFR3 Selectivity” value in assay [1] amounted to 21. The Kd lay in the range of 20 to 100 nM on FGFR2; 1 to 20 nM on FGFR4; 1 to 20 nM on FGFR3 (V555M); 20 to 100 nM on FGFR1; 1 to 20 nM at FGFR3.

Turning to `C[C@@H](Oc1ccc2[nH]nc(-c3ccc(F)nc3)c2c1)c1c(Cl)cncc1Cl` [Example 25, 5-[(1R)-1-(3,5-Dichloro-4-pyridyl)ethoxy]-3-(6-fluoro-3-pyridyl)-1H-indazole], the IC50 on FGFR1-BCR Ba/F3 cells was greater than 300 nM; in assay [1] it was 20 to 100 nM. For the same molecule, the “Ba/F3 FGFR1/FGFR3 Selectivity” value in assay [1] was found to be 22. For the same molecule, the Kd lay in the range of 20 to 100 nM on FGFR2; 20 to 100 nM at FGFR4; 1 to 20 nM on FGFR3 (V555M); 20 to 100 nM at FGFR1; 1 to 20 nM at FGFR3.

`C[C@@H](Oc1ccc2[nH]nc(-c3ccc(N4CCCNC(=O)C4)nc3)c2c1)c1c(Cl)cncc1Cl` [Example 35, 4-[5-[5-[(1R)-1-(3,5-dichloro-4-pyridyl)ethoxy]-1H-indazol-3-yl]-2-pyridyl]-1,4-diazepan-2-one]: the values for the IC50 (on FGFR1-BCR Ba/F3 cells; in assay [1]) were greater than 300 nM and 20 to 100 nM, respectively. Moreover, the “Ba/F3 FGFR1/FGFR3 Selectivity” value in assay [1] was 6. Moreover, the Kd on FGFR2 is 20 to 100 nM; on FGFR4, 1 to 20 nM; on FGFR3 (V555M), 1 to 20 nM; at FGFR1, 20 to 100 nM; at FGFR3, 1 to 20 nM.

Turning to `C[C@@H](Oc1ccc2[nH]nc(-c3ccc(N4CCNC(=O)C4)nc3)c2c1)c1c(Cl)cncc1Cl` [Example 36, 4-[5-[5-[(1R)-1-(3,5-dichloro-4-pyridyl)ethoxy]-1H-indazol-3-yl]-2-pyridyl]piperazin-2-one], the IC50 on FGFR1-BCR Ba/F3 cells fell in the range of 20 to 100 nM; in assay [1] it was 1 to 20 nM. Also, the “Ba/F3 FGFR1/FGFR3 Selectivity” value in assay [1] is 23. Besides, the dissociation constant (Kd) on FGFR2, at FGFR4, on FGFR3 (V555M), on FGFR1 and at FGFR3 was 1 to 20 nM each time.

Turning to `C[C@@H](Oc1ccc2[nH]nc(-c3ccc(N4CCNCC4=O)nc3)c2c1)c1c(Cl)cncc1Cl` [Example 37, 1-[5-[5-[(1R)-1-(3,5-dichloro-4-pyridyl)ethoxy]-1H-indazol-3-yl]-2-pyridyl]piperazin-2-one], the IC50 was 100 to 300 nM on FGFR1-BCR Ba/F3 cells and 1 to 20 nM in assay [1]. The “Ba/F3 FGFR1/FGFR3 Selectivity” value in assay [1] is reported as 12. Besides, the Kd at FGFR2 fell in the range of 20 to 100 nM; at FGFR4, 1 to 20 nM; on FGFR3 (V555M), 1 to 20 nM; at FGFR1, 20 to 100 nM; on FGFR3 it was 1 to 20 nM.

On to `C[C@@H](Oc1ccc2[nH]nc(-c3ccc(N4CCN(C)CC4=O)nc3)c2c1)c1c(Cl)cncc1Cl` [Example 38, 1-[5-[5-[(1R)-1-(3,5-dichloro-4-pyridyl)ethoxy]-1H-indazol-3-yl]-2-pyridyl]-4-methyl-piperazin-2-one], for which the IC50 at FGFR1-BCR Ba/F3 cells is 100 to 300 nM; in assay [1], 1 to 20 nM. Further, in assay [1], the “Ba/F3 FGFR1/FGFR3 Selectivity” value came to 21. The Kd at FGFR2 lay within 20 to 100 nM; on FGFR4 it was 1 to 20 nM; on FGFR3 (V555M) it was 1 to 20 nM; on FGFR1, 20 to 100 nM; on FGFR3 it was 1 to 20 nM.

Take `C[C@@H](Oc1ccc2[nH]nc(-c3ccc(N4CCN(S(C)(=O)=O)CC4=O)nc3)c2c1)c1c(Cl)cncc1Cl` [Example 39, 1-[5-[5-[(1R)-1-(3,5-dichloro-4-pyridyl)ethoxy]-1H-indazol-3-yl]-2-pyridyl]-4-methylsulfonyl-piperazin-2-one]: the values for the IC50 (at FGFR1-BCR Ba/F3 cells; in assay [1]) were 100 to 300 nM and 1 to 20 nM, respectively. Besides, the “Ba/F3 FGFR1/FGFR3 Selectivity” value in assay [1] was determined as 16. In addition, the Kd is 20 to 100 nM at FGFR2; 1 to 20 nM at FGFR4; 1 to 20 nM at FGFR3 (V555M); 20 to 100 nM at FGFR1; 1 to 20 nM at FGFR3.

For the molecule `C[C@@H](Oc1ccc2[nH]nc(-c3ccc(N4CCC5(CCC(=O)N5C)CC4)nc3)c2c1)c1c(Cl)cncc1Cl` [Example 40, 8-[5-[5-[(1R)-1-(3,5-dichloro-4-pyridyl)ethoxy]-1H-indazol-3-yl]-2-pyridyl]-1-methyl-1,8-diazaspiro[4.5]decan-2-one], the IC50 at FGFR1-BCR Ba/F3 cells was in the range of 20 to 100 nM; in assay [1], 1 to 20 nM. In addition, in assay [1], the “Ba/F3 FGFR1/FGFR3 Selectivity” value is given as 30. Moreover, the Kd at FGFR2, on FGFR4, at FGFR3 (V555M), on FGFR1 and on FGFR3 was 1 to 20 nM throughout.

Take `C[C@@H](Oc1ccc2[nH]nc(-c3cnc(N4CCC5(CCC(=O)N5C)CC4)c(F)c3)c2c1)c1c(Cl)cncc1Cl` [Example 43, 8-[5-[5-[(1R)-1-(3,5-dichloro-4-pyridyl)ethoxy]-1H-indazol-3-yl]-3-fluoro-2-pyridyl]-1-methyl-1,8-diazaspiro[4.5]decan-2-one]: the IC50 was in the range of 20 to 100 nM on FGFR1-BCR Ba/F3 cells and 1 to 20 nM in assay [1]. Also, the “Ba/F3 FGFR1/FGFR3 Selectivity” value in assay [1] is 10. Further, the Kd at FGFR2, on FGFR4, at FGFR3 (V555M), at FGFR1 and at FGFR3 was 1 to 20 nM in each case.

In the case of `C[C@@H](Oc1ccc2[nH]nc(-c3cnc(N4CCC5(CC4)C(=O)NCCN5C)c(F)c3)c2c1)c1c(Cl)cncc1Cl` [Example 44, 9-[5-[5-[(1R)-1-(3,5-dichloro-4-pyridyl)ethoxy]-1H-indazol-3-yl]-3-fluoro-2-pyridyl]-1-methyl-1,4,9-triazaspiro[5.5]undecan-5-one], the IC50 at FGFR1-BCR Ba/F3 cells was 20 to 100 nM; in assay [1], 1 to 20 nM. The Kd at FGFR2, on FGFR4, on FGFR3 (V555M), on FGFR1 and at FGFR3 was 1 to 20 nM each time.

For `C[C@@H](Oc1ccc2[nH]nc(-c3cnc(N4CCC5(CC4)CNC(=O)N5)nc3)c2c1)c1c(Cl)cncc1Cl` [Example 53, 8-[5-[5-[(1R)-1-(3,5-dichloro-4-pyridyl)ethoxy]-1H-indazol-3-yl]pyrimidin-2-yl]-1,3,8-triazaspiro-[4.5]decan-2-one], the IC50 is 100 to 300 nM on FGFR1-BCR Ba/F3 cells and 20 to 100 nM in assay [1]. Besides, the “Ba/F3 FGFR1/FGFR3 Selectivity” value in assay [1] worked out at 11. In addition, the Kd lay within 20 to 100 nM at FGFR2; 1 to 20 nM at FGFR4; 1 to 20 nM on FGFR3 (V555M); 20 to 100 nM at FGFR1; 1 to 20 nM on FGFR3.

On to `C[C@@H](Oc1ccc2[nH]nc(-c3cnc(N4CCC5(CCNC5=O)CC4)nc3)c2c1)c1c(Cl)cncc1Cl` [Example 55, 8-[5-[5-[(1R)-1-(3,5-dichloro-4-pyridyl)ethoxy]-1H-indazol-3-yl]pyrimidin-2-yl]-2,8-diazaspiro-[4.5]decan-1-one], for which the figures for the IC50 (at FGFR1-BCR Ba/F3 cells; in assay [1]) were greater than 300 nM and 20 to 100 nM, respectively. Besides, the “Ba/F3 FGFR1/FGFR3 Selectivity” value in assay [1] is listed as 16. The Kd lay within 20 to 100 nM on FGFR2; 1 to 20 nM on FGFR4; 1 to 20 nM on FGFR3 (V555M); 20 to 100 nM at FGFR1; 1 to 20 nM on FGFR3.

The term Kd denotes the equilibrium constant for the complex coming apart.
